PubChem BioAssay (NCI)
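Protocol summary: plate cells (96-well), add compound at 5 concentrations, incubate 48 h, interpolate endpoints linearly. TGI is the concentration that stops growth completely.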

Legend:
Assay in all cases: inhibition of tumour cell growth, NCI panel, 48 h
COLO 205 colon = test system: COLO 205 colon
UO-31 renal = test system: UO-31 renal
OVCAR-4 ovarian = test system: OVCAR-4 ovarian
SNB-19 CNS = test system: SNB-19 CNS
HOP-62 NSCLC = test system: HOP-62 NSCLC
SK-OV-3 ovarian = test system: SK-OV-3 ovarian
KM12 colon = test system: KM12 colon
NCI-H522 lung = test system: NCI-H522 lung
SNB-75 CNS = test system: SNB-75 CNS
HCT-116 colon = test system: HCT-116 colon
SK-MEL-2 melanoma = test system: SK-MEL-2 melanoma

Row | Structure (SMILES) | TGI (COLO 205 colon) [µM] | TGI (UO-31 renal) [µM] | TGI (OVCAR-4 ovarian) [µM] | TGI (SNB-19 CNS) [µM] | TGI (HOP-62 NSCLC) [µM] | TGI (SK-OV-3 ovarian) [µM] | TGI (KM12 colon) [µM] | TGI (NCI-H522 lung) [µM] | TGI (SNB-75 CNS) [µM] | TGI (HCT-116 colon) [µM] | TGI (SK-MEL-2 melanoma) [µM]
1 | CC(C)(C)[C@@H]1NC(=O)CN1C(=O)OCc1ccccc1 | > 100 | > 100 | > 100 | > 100 | > 100 | > 100 | > 100 | > 100 | > 100 | > 100 | > 100
2 | Cc1ccc(Nc2ncnc3sc(SCc4ccccc4)nc23)cc1 | > 100 | > 100 | > 100 | > 100 | > 100 | > 100 | > 100 | > 100 | > 100 | > 100 | > 100
3 | Cc1cc(SCC(=O)c2ccc(Br)cc2)cc(C)[o+]1 | 83.7 | 83.9 | 83.7 | > 100 | > 100 | > 100 | 62.6 | 65.2 | 56.9 | 65.7 | 76
